# Experimental data published in patent US20240024216A1, “METHODS AND MATERIALS FOR TREATING HAIR LOSS” (The Penn State Research Foundation, priority 2021, published 2024).
# Tests used:
# [1] = system: wound healing mouse skin sections; assay: Immunostaining and western blot of day 14 wound tissue markers; format: in vivo, mice
# Description: Briefly, immunohistochemical and immunofluorescence analysis were performed on 5 μm thick wound healing mouse skin sections. The sections were deparaffinized and subjected to an antigen retrieval process by using sodium citrate buffer at 95° C. followed by immersed in 0.5% triton X-100. The section slides were blocked using 5% goat serum in 0.1% PBS-T for 1 hour. The following primary antibodies mouse monoclonal [LL002] anti-Cytokeratin14 (catalog No.—ab7800; IF-1:100), rat CD31 antibody (Catalog No.—553370; IF-1:100), mouse S100 antibody (Catalog No.—MA5-12969; IF-1:200), rabbit nerve growth factor receptor—p75-NTR antibody (Catalog No.—AB1554; IF and WB-1:500), Chicken neurofilament Heavy-NFH antibody (Catalog No.—NB300-217; IF-1:500), mouse alpha-smooth muscle actin —α-SMA antibody (Catalog No.—14-9760-82; IF-1:200 and WB-1:500), mouse TGF beta antibody (Catalog No.—27969; IF-1:100 and WB-1:500), rabbit Ki67 antibody (Catalog No.—9129S; IF-1:400), chicken keratin 15 antibody (Catalog No. —833901; IF-1:500), rabbit K17 antibody (gift from Pierre a. coulombe Lab; IF-1:1000), rabbit interleukin-1 beta antibody (Catalog No.—GTX74034; IF-1:100), rat F4/80 antibody (Catalog No.—MCA497GA; IF-1:100), mouse anti-SOX10 antibody (Catalog No.—sc-365692; IF-1:100 and WB-1:200), chicken anti-myelin basic protein antibody (Catalog No.—MBP; IF-1:1000), rabbit vimentin antibody (Catalog No.—10366-1-AP; IF-1:200), rabbit NGF antibody (Catalog No.—MA5-32067; IF-1:100 and WB-1:1000), mouse PGP 9.5 antibody (Catalog No.—PA5-29012; IF-1:200), chicken anti-P-zero myelin protein antibody (Catalog No.—PZO; IF-1:200), and rat substance P antibody (Catalog No. —NB100-65219; IF-1:100) were overnight incubated with 5% BSA in 0.1% PBS-T for IF stain and/or 5% skimmed milk in 0.1% TBS-T for Western blot at 4° C., then incubated with secondary antibodies for 1 hour at room temperature. The ProLong™ Gold Anti-fade Mountant with DAPI (Invitrogen, Caltlog No. P36935) used as nuclear counterstain. The immunofluorescence stained sections were imaged using ZEISS Axio Observer 7—Axiocam 506 mono—Apotome.2 microscope. The image analysis and quantification were formed either using ZEN 2.6 pro (Zeiss) imaging software or ImageJ-1.53e software (National Institutes of Health, USA).
# For protein isolation the harvested skin tissue was flash frozen immediately. The frozen skin tissue ground to a fine power using a liquid nitrogen mortar. The harvested cells and/or tissue powder dissolved in RIPA buffer containing Halt™ Phosphatase (Thermo Scientific, Catlog No. 78420,) and Protease Inhibitor Cocktail (Roche complete tablets mini EASYpack, Catlog No. 04694124001). Tissue and cell debris removed by centrifuged at 14000 rpm for 30 minutes at 4° C. The supernatant was collected and the total protein concentration was determined by BCA protein assay (Thermo Scientific™ Pierce™, Catlog No. 23225). The proteins (20-30 μg) of the tissue protein samples were subjected to 12% sodium dodecyl sulfate polyacrylamide gel electrophoresis (Bio-Rad mini-PROTEAN TGX Gels, Catlog No. 4561044) and transferred to polyvinylidene fluoride (PVDF) membranes. After the membranes were blocked with 5% skimmed milk in 1×TBS-T for 1 hour, they were incubated with the appropriate primary antibodies (1:200-1:1000) at 4° C. overnight, then incubated with HRP-conjugated secondary antibodies (1:3000) for 1 hour. Immunoreactivity was then detected using chemiluminescent substrate (Thermo Scientific™ SuperSignal™ West Pico PLUS, Catlog No. 34577). The intensities of the bands were quantified using Gel-imaging software. The quantified band intensity were normalized using GAPDH and expressed either normalized intensity or ratios with respect to saline treated mice.
# [2] = system: keratinocytes, Schwann cells and fibroblast; assay: Cell viability MTT assay; format: cell-based, human; settings: concentrations of 4-AP used in vitro; 24 hours
# Description: The keratinocytes, Schwann cells and fibroblast were culture on 96-well plates, the wells were pre-coated with respective coating matrix in complete growth medium and incubated cells for 12-18 hours at 37° C. in 5% CO2 incubator. Cells were washed with PBS and added basal Schwann cells/fibroblast/keratinocytes medium to starve, then incubated for 4 hours at 37° C. with 5% CO2. After the incubation period, various concentrations of 4-AP (concentrations ranging from 1 to 10000 μM) in 100 μL containing respective medium's (complete keratinocytes, Schwann cells and fibroblast medium), cells were incubated either 24 hours at +37° C. and 5% CO2 incubator. After completion of incubation time, 10 μL of the MTT labeling reagent (final concentration 0.5 mg/ml) was added to each well and incubate at +37° C. for 4 hours in a humidified atmosphere. Then, 100 μL of the solubilization solution into each well and allow the plate to stand in the incubator overnight or until the formazan crystals had dissolved. […] The formazan absorbance was read using wavelength of 550 nm in a plate reader. The color of optical density (OD) is directly propositional to number of live cells. The percentage of live keratinocytes/Schwann cells/fibroblast cells was determined using the following formula. […]
# [3] = day 14, vs saline treated controls
compound,measurement,setting,value
"Nc1ccncc1 [4-AP, 4-aminopyridine]",keratinocyte K10 expression in healed epidermis,[1]; day 14,did not cause any change
same,levels of PGP 9.5 compared with uninjured tissue,[1]; day 14,not significantly different
same,K17 expressing cells,"[1]; day 14, vs control group",more abundant
same,inflammatory cells (IL-1β) and macrophages (F4/80) in granulation tissue,"[1]; day 14, vs control wounds",less of inflammatory cells and macrophages
same,fold increase in Ki-67+,[1]; [3],2 fold
same,fold increase in NF-H axonal counts,[1]; [3],2.5 fold
same,fold increase in S100+ cells,[1]; [3],3 fold
same,increase in K15+ cells,[1]; [3],two fold increase
same,SOX10 expression,"[1]; day 14, vs saline treated mice",Significantly increased
same,fold increase in NGF expression,"[1]; day 14, vs saline treated mice",4 fold
same,substance-P expression,"[1]; day 14, vs saline treated mice",Significantly increased
same,fold increase in K14+ keratinocytes,"[1]; day 14, vs saline-treated mice",2.5 fold
same,"double positive (S100+, p75-NTR+) SCs","[1]; day 14, vs saline, confirmed by WB for p75-NTR",increased numbers
same,K14+ keratinocytes,[1]; day 14 wound bed,13.72±1.403%
same,Ki-67+ in hair follicle bulges and epidermis,[1]; day 14 wound tissue,21.87±2.763 cells/mm^2
same,NF-H axonal counts,[1]; day 14 wound tissue,194±50.51 count/mm^2
same,NGF expression,[1]; day 14 wound tissue,2429872±375280 integrated density/mm^2
same,S100+ cells around nerve bundles,[1]; day 14 wound tissue,6.483±1.163 % positive cells
same,CD31 intensity (blood vessels),"[1]; day 14 wound tissue, vs saline",statistically significant increases
same,TGF-β protein expression,"[1]; day 14 wound tissue, vs saline",significant increases
same,vimentin-positive fibroblasts,"[1]; day 14 wound tissue, vs saline",more vimentin-positive fibroblasts
same,α-SMA-positive myofibroblasts,"[1]; day 14 wound tissue, vs saline",more
same,PGP 9.5+ nerve fibres,[1]; fourteen days post wound,4096938±713297 integrated density/mm^2
same,PGP 9.5+ nerve fibres relative to saline treated mice,[1]; fourteen days post wound,twice as abundant
same,cell viability,[2],not affected
